What was measured:
[1] = system: Staphylococcus aureus ATCC 6538; test: Quantitative suspension test, log10 reduction in bacterial numbers; assay type: cell-based; conditions: 1% w/v H2O2
Excerpt: (§1) Neutralisation (nullification of activity) of antimicrobial agents is required to prevent inhibitory concentrations from being transferred to the recovery medium (as discussed, for example, in Russell A. D. (2004) Factors influencing the efficacy of antimicrobial agents in Principles and Practice of Disinfection Preservation and Sterilization, 4th edition, eds Fraise A. P., Lambert P. A. and Maillard J. Y., pages 98-127, Oxford: Blackwell Publishing Ltd. and Russell A. D., Ahonkhai I. and Rogers, D. T. (1979) A review: microbiological applications of the inactivation of antibiotics and other antimicrobial agents. Journal of Applied Bacteriology, 46, 207-245). Thus, samples were removed at desired time points and then any hydrogen peroxide present in the sample was neutralised (i.e. deactivated) using catalase.
(§2) In the examples, catalase from bovine liver was used to neutralise the activity of any remaining hydrogen peroxide (as described in Russell A. D., Ahonkhai I. and Rogers, D. T. (1979), A review: microbiological applications of the inactivation of antibiotics and other antimicrobial agents, Journal of Applied Bacteriology, 46, 207-245) after the appropriate contact time during the experiments. Control experiments were conducted to establish whether the neutraliser nullified the activity of hydrogen peroxide and whether the neutraliser was toxic to the micro-organisms tested.
(§3) The effect of acidic pH conditions (pH 3.47 to 3.54) were investigated with and without hydrogen peroxide and air.
(§4) A quantitative suspension test (as described in Reybrouck G. (1998), The testing of disinfectants, International Biodeterioration and Biodegradation, 41, 269-272) based on the general principles of European quantitative suspension tests (BS EN1040:2005: Chemical disinfectants and antiseptics, Quantitative suspension test for the evaluation of basic bactericidal activity of chemical disinfectants and antiseptics, Test method and requirements (phase 1), London: British Standards Institute; BS EN 1276:1997: Chemical disinfectants and antiseptics, Quantitative suspension test for the evaluation of bactericidal activity of chemical disinfectants and antiseptics used in food, industrial, domestic, and institutional areas, Test method and requirements (phase 2, step 1). London: British Standards Institute) was used to establish the basic level of activity of the catalyst in the absence of organic matter. All tests were performed independently at least three times unless otherwise stated. Low concentrations (0.2-1% w/v) of hydrogen peroxide were used so that increases in antimicrobial activity could be detected if present.
(§5) Bacteria were inoculated into 10 ml volumes of nutrient broth and incubated at 37° C. for 18 to 24 hours at a shaking speed of 100 revolutions/minute. After incubation, the bacteria were washed by centrifugation to remove the nutrient broth; supernatants were discarded and the bacterial pellets were resuspended in sterilised distilled water. 7.5 ml of the washed bacterial suspension was added to 67.5 ml of hydrogen peroxide and/or distilled water to give a specific final concentration (ranging from 0 to 1% w/v—see Tables below) of hydrogen peroxide and approximately 8 log10 colony forming units (CFU)/mL of bacteria. The resultant mixture was stirred magnetically throughout the experiment. Where applicable, 1 g (+/−0.1 g) of either modified PAN fibre (referred to as PAN1 (control) or PAN2 (control)) or catalyst (referred to as PAN1 catalyst or PAN2 catalyst or PAN3 catalyst) comprising PAN fibres was added to the resultant mixture. The experiments were performed with or without air. If air was used, 2.5 L/min was supplied via. a filtered air pump and a sterilised Pyrex gas distribution tube.
(§6) After a specific contact time (see Tables below), 1 ml aliquots were removed from the experimental flask and transferred into 9 ml of neutraliser (catalase) for 5 minutes to inactivate any remaining hydrogen peroxide.

[2] = system: Pseudomonas aeruginosa ATCC 15442; test: as above; assay type: cell-based; conditions: 0.5% w/v H2O2; for log reduction: 35° C.
Excerpt: as §1, §2, §3, §4, §5, §6

[3] = air 2.5 L/min, 50 min, listed as hydrogen peroxide
[4] = no air, 60 min, listed as hydrogen peroxide
[5] = acidic pH 3.47 to 3.54, air 2.5 L/min, 10 min
[6] = acidic pH 3.47 to 3.54, air 2.5 L/min, 20 min
[7] = acidic pH 3.47 to 3.54, air 2.5 L/min, 30 min
[8] = acidic pH 3.47 to 3.54, air 2.5 L/min, 40 min
[9] = acidic pH 3.47 to 3.54, air 2.5 L/min, 50 min
[10] = acidic pH 3.47 to 3.54, air 2.5 L/min, 60 min
[11] = acidic pH 3.47 to 3.54, no air, 10 min
[12] = acidic pH 3.47 to 3.54, no air, 20 min
[13] = acidic pH 3.47 to 3.54, no air, 30 min
[14] = acidic pH 3.47 to 3.54, no air, 40 min
[15] = acidic pH 3.47 to 3.54, no air, 50 min
[16] = acidic pH 3.47 to 3.54, no air, 60 min

OO [Example H2O2, hydrogen peroxide]
Mean log10 reduction in CFU/ml ([1]; air 2.5 L/min, 10 min): 0.61 log10 CFU/ml
Mean log10 reduction in CFU/ml ([1]; air 2.5 L/min, 20 min): 1.27 log10 CFU/ml
Mean log10 reduction in CFU/ml ([1]; air 2.5 L/min, 30 min): 2.57 log10 CFU/ml
Mean log10 reduction in CFU/ml ([1]; air 2.5 L/min, 40 min): 3.84 log10 CFU/ml
Mean log10 reduction in CFU/ml ([1]; air 2.5 L/min, 50 min): 5.07 log10 CFU/ml
Mean log10 reduction in CFU/ml [1, 3]: 5 log10 CFU/ml
Mean log10 reduction in CFU/ml ([1]; air 2.5 L/min, 60 min): 5.40 log10 CFU/ml
Mean log10 reduction in CFU/ml ([1]; no air, 10 min): 0.70 log10 CFU/ml
Mean log10 reduction in CFU/ml ([1]; no air, 20 min): 1.43 log10 CFU/ml
Mean log10 reduction in CFU/ml ([1]; no air, 30 min): 2.88 log10 CFU/ml
Mean log10 reduction in CFU/ml ([1]; no air, 40 min): 3.89 log10 CFU/ml
Mean log10 reduction in CFU/ml ([1]; no air, 50 min): 4.97 log10 CFU/ml
Mean log10 reduction in CFU/ml ([1]; no air, 60 min): 5.37 log10 CFU/ml
Mean log10 reduction in CFU/ml [1, 4]: 5 log10 CFU/ml
Mean log10 reduction in CFU/ml [1, 5]: 1.00 log10 CFU/ml
Mean log10 reduction in CFU/ml [1, 6]: 1.86 log10 CFU/ml
Mean log10 reduction in CFU/ml [1, 7]: 2.33 log10 CFU/ml
Mean log10 reduction in CFU/ml [1, 8]: 2.83 log10 CFU/ml
Mean log10 reduction in CFU/ml [1, 9]: 2.23 log10 CFU/ml
Mean log10 reduction in CFU/ml [1, 10]: 3.45 log10 CFU/ml
Mean log10 reduction in CFU/ml [1, 11]: 0.69 log10 CFU/ml
Mean log10 reduction in CFU/ml [1, 12]: 0.72 log10 CFU/ml
Mean log10 reduction in CFU/ml [1, 13]: 1.30 log10 CFU/ml
Mean log10 reduction in CFU/ml [1, 14]: 2.03 log10 CFU/ml
Mean log10 reduction in CFU/ml [1, 15]: 2.90 log10 CFU/ml
Mean log10 reduction in CFU/ml [1, 16]: 3.23 log10 CFU/ml
Mean log10 reduction in CFU/ml ([1]; room temperature, no air, no catalyst, 10 min): 0.43 log10 CFU/ml
Mean log10 reduction in CFU/ml ([1]; room temperature, no air, no catalyst, 20 min): 1.21 log10 CFU/ml
Mean log10 reduction in CFU/ml ([1]; room temperature, no air, no catalyst, 30 min): 2.25 log10 CFU/ml
Mean log10 reduction in CFU/ml ([1]; room temperature, no air, no catalyst, 40 min): 3.92 log10 CFU/ml
Mean log10 reduction in CFU/ml ([1]; room temperature, no air, no catalyst, 50 min): 4.57 log10 CFU/ml
Mean log10 reduction in CFU/ml ([1]; room temperature, no air, no catalyst, 60 min): 5.10 log10 CFU/ml
Mean log10 reduction in CFU/ml ([2]; air 2.5 L/min, 10 min): 0.36 (0.13) log10 CFU/ml
Mean log10 reduction in CFU/ml ([2]; air 2.5 L/min, 20 min): 0.53 (0.10) log10 CFU/ml
Mean log10 reduction in CFU/ml ([2]; air 2.5 L/min, 30 min): 0.55 (0.18) log10 CFU/ml
Mean log10 reduction in CFU/ml ([2]; air 2.5 L/min, 40 min): 0.59 (0) log10 CFU/ml
Mean log10 reduction in CFU/ml ([2]; air 2.5 L/min, 50 min): 0.72 (0.07) log10 CFU/ml
Mean log10 reduction in CFU/ml [2, 3]: 0.72 log10 CFU/ml
Mean log10 reduction in CFU/ml ([2]; air 2.5 L/min, 60 min): 0.50 (0.09) log10 CFU/ml
Mean log10 reduction in CFU/ml ([2]; air 2.5 L/min, 60 min, listed as hydrogen peroxide): 0.5 log10 CFU/ml
Mean log10 reduction in CFU/ml ([2]; no air, 10 min): 0.52 (0.12) log10 CFU/ml
Mean log10 reduction in CFU/ml ([2]; no air, 20 min): 0.81 (0.24) log10 CFU/ml
Mean log10 reduction in CFU/ml ([2]; no air, 30 min): 0.88 (0.25) log10 CFU/ml
Mean log10 reduction in CFU/ml ([2]; no air, 40 min): 0.86 (0.32) log10 CFU/ml
Mean log10 reduction in CFU/ml ([2]; no air, 50 min): 0.87 (0.28) log10 CFU/ml
Mean log10 reduction in CFU/ml ([2]; no air, 60 min): 0.97 (0.22) log10 CFU/ml
Mean log10 reduction in CFU/ml [2, 4]: 0.97 log10 CFU/ml
log reduction ([2]; not buffered, air, 10 min): 1.80 log
log reduction ([2]; not buffered, air, 20 min): 2.42 log
log reduction ([2]; not buffered, air, 60 min): 3.61 log
log reduction ([2]; not buffered, no air, 10 min): 2.51 log
log reduction ([2]; not buffered, no air, 40 min): 4.15 log
log reduction ([2]; not buffered, no air, 60 min): 4.45 log
Mean log10 reduction in CFU/ml [2, 5]: 2.53 log10 CFU/ml
Mean log10 reduction in CFU/ml [2, 6]: 3.41 log10 CFU/ml
Mean log10 reduction in CFU/ml [2, 7]: 4.25 log10 CFU/ml
Mean log10 reduction in CFU/ml [2, 8]: ≧4.81 log10 CFU/ml
Mean log10 reduction in CFU/ml [2, 9]: ≧5.34 log10 CFU/ml
Mean log10 reduction in CFU/ml ([2]; acidic pH 3.47 to 3.54, air 2.5 L/min, 50 min, listed as hydrogen peroxide): greater than 5 log10 CFU/ml
Mean log10 reduction in CFU/ml [2, 10]: ≧5.34 log10 CFU/ml
Mean log10 reduction in CFU/ml [2, 11]: 2.30 log10 CFU/ml
Mean log10 reduction in CFU/ml [2, 12]: 2.76 log10 CFU/ml
Mean log10 reduction in CFU/ml [2, 13]: 3.71 log10 CFU/ml
Mean log10 reduction in CFU/ml [2, 14]: 3.88 log10 CFU/ml
Mean log10 reduction in CFU/ml [2, 15]: 4.52 log10 CFU/ml
Mean log10 reduction in CFU/ml [2, 16]: 4.83 log10 CFU/ml
Mean log10 reduction in CFU/ml ([2]; room temperature, not buffered, air 2.5 L/min, 10 min): 0.49 log10 CFU/ml
Mean log10 reduction in CFU/ml ([2]; room temperature, not buffered, air 2.5 L/min, 20 min): 0.70 log10 CFU/ml
Mean log10 reduction in CFU/ml ([2]; room temperature, not buffered, air 2.5 L/min, 30 min): 0.70 log10 CFU/ml
Mean log10 reduction in CFU/ml ([2]; room temperature, not buffered, air 2.5 L/min, 40 min): 0.80 log10 CFU/ml
Mean log10 reduction in CFU/ml ([2]; room temperature, not buffered, air 2.5 L/min, 50 min): 0.81 log10 CFU/ml
Mean log10 reduction in CFU/ml ([2]; room temperature, not buffered, air 2.5 L/min, 60 min): 0.63 log10 CFU/ml
Mean log10 reduction in CFU/ml ([2]; room temperature, not buffered, no air, 10 min): 0.58 log10 CFU/ml
Mean log10 reduction in CFU/ml ([2]; room temperature, not buffered, no air, 20 min): 1.00 log10 CFU/ml
Mean log10 reduction in CFU/ml ([2]; room temperature, not buffered, no air, 30 min): 1.00 log10 CFU/ml
Mean log10 reduction in CFU/ml ([2]; room temperature, not buffered, no air, 40 min): 1.00 log10 CFU/ml
Mean log10 reduction in CFU/ml ([2]; room temperature, not buffered, no air, 50 min): 1.02 log10 CFU/ml
Mean log10 reduction in CFU/ml ([2]; room temperature, not buffered, no air, 60 min): 1.12 log10 CFU/ml
